One data set can be described thus: physchem. The settings on record: pH 5.6.
The subject of a further data set is CLas. The class given is in vivo, Candidatus Liberibacter asiaticus. The settings on record: CLas-infected citron leaves, petioles soaked with 200 ng in buffer; D. citri nymphs 21 days; versus buffer control.

In brackets after ≈: the same amount, converted by molar mass.

What is called MIC is the lowest concentration found to suppress growth. The low end stands for greater potency, the high end for weaker potency. The term solubility denotes the dissolved amount per volume that the medium holds. Read a high solubility as much dissolved substance. “Ac-NLKAIAALAKKLL-NH2 [Mastoparan-VT2, NLKAIAALAKKLL]”: in the data set on L. crescens BT-1, the MIC turned out to be 400 µg/mL. The compound further had a solubility in the data set “physchem” greater than 20 mg/mL. In the same order, the values of “Ac-INLKAIAAFAKKLL-NH2 [Mastoparan-T, INLKAIAAFAKKLL]” are 200 µg/mL and greater than 20 mg/mL.

For “Ac-INWLKLGKMVIDAL-NH2 [Polybia-MPII, INWLKLGKMVIDAL]”, in the data set on L. crescens BT-1, the minimal inhibitory concentration (MIC) was 400 µg/mL. The solubility in “physchem” is greater than 20 mg/mL. For “Ac-LNFKALAALAKKIL-NH2 [Mastoparan-R2, LNFKALAALAKKIL]” the same measures were 200 µg/mL and greater than 20 mg/mL. “Ac-INWKKIKSIIKAAMN-NH2 [Mastoparan-V1, INWKKIKSIIKAAMN]”: the MIC against L. crescens BT-1 is 400 µg/mL. The compound also came in with a solubility in “physchem” greater than 20 mg/mL. In turn, “Ac-INLLKIAKGIIKSL-NH2 [EMP-AF, INLLKIAKGIIKSL]” showed an MIC against L. crescens BT-1 of 1000 µg/mL. In “physchem”, the solubility was greater than 20 mg/mL.

“Ac-INWLKLGKKILGAL-NH2 [PDD-B, INWLKLGKKILGAL]” came in with an MIC against L. crescens BT-1 of 1000 µg/mL. Also, the solubility in the data set “physchem” was greater than 20 mg/mL.

The compound “Ac-INWKGIAAMKKLL-NH2 [Mastoparan-like_12b, INWKGIAAMKKLL]” showed an MIC with L. crescens BT-1 greater than 1000 µg/mL. The compound also came in with a solubility in “physchem” greater than 20 mg/mL. In the data set with L. crescens BT-1, “Ac-INMKASAAVAKKLL-NH2 [MP-VB1t, INMKASAAVAKKLL]” registered an MIC greater than 1000 µg/mL. In addition, the solubility in the data set “physchem” is greater than 20 mg/mL.

“Ac-INLKAIAAMAKKLL-NH2 [Mastoparan-like_12d, INLKAIAAMAKKLL]” came in with an MIC with L. crescens BT-1 of 400 µg/mL. Moreover, in “physchem”, the solubility is greater than 20 mg/mL.

As for “Ac-INWKKMAATALKMI-NH2 [Parapolybia-MP, INWKKMAATALKMI]”, the MIC with L. crescens BT-1 is greater than 1000 µg/mL. In the data set “physchem”, this compound displayed a solubility greater than 20 mg/mL. In the same order, the values of “Ac-INWLKLGKQILGAL-NH2 [Mastoparan-R3, INWLKLGKQILGAL]” are 400 µg/mL and greater than 20 mg/mL.

Consider “Ac-LKLMGIVKKVLGAL-NH2 [EMP-EM1, LKLMGIVKKVLGAL]”, for which the MIC with L. crescens BT-1 was determined as 200 µg/mL. The solubility in “physchem” was no less than 10 mg/mL. For “Ac-LKLLGIVKKVLGAI-NH2 [EMP-EM2, LKLLGIVKKVLGAI]” the same measures were 200 µg/mL and less than 5 mg/mL.

With “Ac-FDVMGIIKKIAGAL-NH2 [EMP-EF, FDVMGIIKKIAGAL]”, the MIC against L. crescens BT-1 turned out to be 200 µg/mL. In the data set “physchem”, the solubility was less than 5 mg/mL.

Compound “Ac-INWKKIFEKVKNLV-NH2 [PDD-A, INWKKIFEKVKNLV]” displayed an MIC against L. crescens BT-1 of 200 µg/mL. The solubility in the data set “physchem” was greater than 20 mg/mL. In the same order, the values of “Ac-VIVKAIATLSKKLL-NH2 [Mastoparan-VT5, VIVKAIATLSKKLL]” are greater than 1000 µg/mL and greater than 20 mg/mL.

As to `CC[C@H](C)[C@H](NC(=O)[C@H](CC(=O)O)NC(=O)[C@H](Cc1ccccc1)NC(C)=O)C(=O)N[C@@H](CCSC)C(=O)NCC(=O)N[C@@H](CC(C)C)C(=O)N[C@H](C(=O)N[C@@H](CCCCN)C(=O)N[C@@H](CCCCN)C(=O)N[C@H](C(=O)N[C@@H](C)C(=O)NCC(=O)N[C@@H](C)C(=O)N[C@@H](CC(C)C)C(N)=O)C(C)C)[C@@H](C)CC` [EMP-ER, FDIMGLIKKVAGAL], the MIC against L. crescens BT-1 was 200 µg/mL (≈ 0.132 mM). The compound also displayed a solubility in the data set “physchem” of no less than 10 mg/mL.

Consider “Ac-INWLKLGKKILGAI-NH2 [Mastoparan-R1, INWLKLGKKILGAI]”, for which, in the data set with L. crescens BT-1, the MIC was determined as 200 µg/mL. The compound further returned a solubility in the data set “physchem” greater than 20 mg/mL. For “Ac-INLKAIAALARNY-NH2 [Mastoparan-VT7, INLKAIAALARNY]” the same measures were greater than 200 µg/mL and less than 5 mg/mL. In the same order, the values of Ac-INLKAIAALVKKLL-NH2 [Mastoparan-VT6] are 100 µg/mL and greater than 20 mg/mL.

For the compound “Ac-INLKAITALAKKLL-NH2 [Mastoparan-VT3, INLKAITALAKKLL]”, the MIC against L. crescens BT-1 came to 400 µg/mL. The solubility in the data set “physchem” is no less than 10 mg/mL. For “Ac-INWKKIKSLIKAAMS-NH2 [Mastoparan-V2, INWKKIKSLIKAAMS]” the same measures were 200 µg/mL and greater than 20 mg/mL. Take polymyxin B [PMB, reference compound]: the “ability of bacteria in treated leaves to infect psyllid nymphs (CLas abundance in adult psyllids, FIG. 4)” value with CLas is “less able to infect the psyllid nymphs”. “Ac-INWKKIASIGKEVLKAL-NH2 [PMM, INWKKIASIGKEVLKAL]”: the MIC against L. crescens BT-1 stood at 200 µg/mL. Also, the solubility in “physchem” was greater than 20 mg/mL. In the same order, the values of “Ac-GRILSFIKGLAEHL-NH2 [EMP-OD, GRILSFIKGLAEHL]” are 400 µg/mL and greater than 20 mg/mL.

For the compound “Ac-INWKGIAAMAKKLL-NH2 [Mastoparan-X, INWKGIAAMAKKLL]”, the MIC with L. crescens BT-1 came out at 1000 µg/mL. In addition, in the data set “physchem”, the solubility was greater than 20 mg/mL. For “Ac-IDWLKLGKMVMDVL-NH2 [Venom_protein_13b, IDWLKLGKMVMDVL]” the same measures were 200 µg/mL and less than 5 mg/mL.

Consider “Ac-INLKAIAPLAKKLL-NH2 [Mastoparan-VT4, INLKAIAPLAKKLL]”, for which the solubility in “physchem” is greater than 20 mg/mL. Compound “Ac-INWLKLGKKMMSAL-NH2 [MP, INWLKLGKKMMSAL]” yielded an MIC with L. crescens BT-1 of 1000 µg/mL. The compound further displayed a solubility in “physchem” greater than 20 mg/mL.

These data come from patent publication US20260053146A1 (priority 2024, published 2026).
